Source: patent US6355799B1, “Substituted benzene compounds, process for their preparation, and herbicidal and defoliant compositions containing them” (ISK Americas Incorporated, priority 1997, dated 2002)

Tests used:
Format in all cases: in vivo
[1] = tested on: redroot pigweed (Amaranthus retroflexus, AMARE); experiment: Pre-emerge test, greenhouse herbicide activity screening; conditions: rating scale 0-100, 14 days after application
Procedure, shortened: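 Compounds in acetone were track-sprayed at 187 l/ha, 15–1000 g ai/ha, onto sandy loam pots. Pre-emerge seeds were sown one day before spraying, with surface watering afterwards. Post-emerge plants were at the 2–3 leaf stage and sprayed with 0.25% v/v non-ionic surfactant. Injury was rated 0–100 at 14 days.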

[2] = tested on: barnyardgrass (Echinochloa crus-galli, ECHCG); experiment: as above; conditions: rating scale 0-100, 14 days after application
Procedure, shortened: (§1)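 Applied at 15–1000 g ai/ha from acetone in 187 l/ha spray volume. Post-emergence applications included 0.25% v/v non-ionic surfactant and reached plants sown 8–21 days before. Pre-emergence applications were incorporated by surface watering. Efficacy or crop damage was rated on a 0–100 scale after 14 days.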

[3] = tested on: common ragweed (Ambrosia artemisizfolia L., AMBEL); experiment: as above; conditions: rating scale 0-100, 14 days after application
Procedure, shortened: as §1

[4] = tested on: green foxtail (Setaria viridis, SETVI); experiment: as above; conditions: rating scale 0-100, 14 days after application
Procedure, shortened: as §1

[5] = tested on: ivyleaf morningglory (Ipomoea hederacea, IPOHE); experiment: as above; conditions: rating scale 0-100, 14 days after application
Procedure, shortened: as §1

[6] = tested on: johnsongrass (Sorghum halepense, SORHA); experiment: as above; conditions: rating scale 0-100, 14 days after application
Procedure, shortened: as §1

[7] = tested on: lambsquarters (Chenopodium album, CHEAL); experiment: as above; conditions: rating scale 0-100, 14 days after application
Procedure, shortened: as §1

[8] = tested on: large crabgrass (Digitaria sanguinalis, DIGSA); experiment: as above; conditions: rating scale 0-100, 14 days after application
Procedure, shortened: as §1

[9] = tested on: sicklepod (Cassia obtusifolia, CASOB); experiment: as above; conditions: rating scale 0-100, 14 days after application
Procedure, shortened: as §1

[10] = tested on: velvetleaf (Abutilon theophrasti, ABUTH); experiment: as above; conditions: rating scale 0-100, 14 days after application
Procedure, shortened: as §1

[11] = tested on: field corn (Zea mays L., var. Dekalb 535, CORN); experiment: Pre-emerge test, crop safety; conditions: rating scale 0-100, 14 days after application
Procedure, shortened: (§2)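 Plants grown in 10 cm pots of sandy loam mix received acetone-dissolved compounds through a moving flat-fan nozzle. Doses ranged from 15 to 1000 g ai/ha. Pre-emerge pots were seeded one day earlier, post-emerge pots 8–21 days earlier. Fourteen days on, each pot was graded 0–100 for damage.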

[12] = tested on: upland rice (Oryza sp., var. Tebonnet, RICE); experiment: Pre-emerge test, crop safety; conditions: rating scale 0-100, 14 days after application
Procedure, shortened: as §2

[13] = tested on: barnyardgrass (Echinochloa crus-galli, ECHCG); experiment: Post-emerge test, greenhouse herbicide activity screening; conditions: rating scale 0-100 (0 no damage, 100 complete death), 14 days after application
Procedure, shortened: (§3)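 Fourteen days after spraying, crop and weed injury was graded visually from 0, no effect, to 100, every plant dead. Test substances were dissolved in acetone and applied at 15–1000 g ai/ha with a flat-fan nozzle. Application was either pre-emergence, one day after sowing, or post-emergence at the 2–3 leaf stage.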

[14] = tested on: common ragweed (Ambrosia artemisizfolia L., AMBEL); experiment: as above; conditions: rating scale 0-100 (0 no damage, 100 complete death), 14 days after application
Procedure, shortened: as §3

[15] = tested on: green foxtail (Setaria viridis, SETVI); experiment: as above; conditions: rating scale 0-100 (0 no damage, 100 complete death), 14 days after application
Procedure, shortened: as §3

[16] = tested on: ivyleaf morningglory (Ipomoea hederacea, IPOHE); experiment: as above; conditions: rating scale 0-100 (0 no damage, 100 complete death), 14 days after application
Procedure, shortened: as §3

[17] = tested on: johnsongrass (Sorghum halepense, SORHA); experiment: as above; conditions: rating scale 0-100 (0 no damage, 100 complete death), 14 days after application
Procedure, shortened: as §3

[18] = tested on: lambsquarters (Chenopodium album, CHEAL); experiment: as above; conditions: rating scale 0-100 (0 no damage, 100 complete death), 14 days after application
Procedure, shortened: as §3

[19] = tested on: large crabgrass (Digitaria sanguinalis, DIGSA); experiment: as above; conditions: rating scale 0-100 (0 no damage, 100 complete death), 14 days after application
Procedure, shortened: as §3

[20] = tested on: redroot pigweed (Amaranthus retroflexus, AMARE); experiment: as above; conditions: rating scale 0-100 (0 no damage, 100 complete death), 14 days after application
Procedure, shortened: as §3

[21] = tested on: sicklepod (Cassia obtusifolia, CASOB); experiment: as above; conditions: rating scale 0-100 (0 no damage, 100 complete death), 14 days after application
Procedure, shortened: as §3

[22] = tested on: velvetleaf (Abutilon theophrasti, ABUTH); experiment: as above; conditions: rating scale 0-100 (0 no damage, 100 complete death), 14 days after application
Procedure, shortened: as §3

[23] = tested on: field corn (Zea mays L., var. Dekalb 535, CORN); experiment: Post-emerge test, crop safety; conditions: rating scale 0-100 (0 no damage, 100 complete death), 14 days after application
Procedure, shortened: as §1

[24] = tested on: upland rice (Oryza sp., var. Tebonnet, RICE); experiment: Post-emerge test, crop safety; conditions: rating scale 0-100 (0 no damage, 100 complete death), 14 days after application
Procedure, shortened: as §1

COc1c(Cl)cc(F)c(-n2c(=O)cc(C(F)(F)F)n(C)c2=O)c1CC(Cl)C(=O)OCC(F)(F)F (stereo not drawn) [14-21]
Pre-emerge herbicidal activity, phytotoxicity rating AMARE ([1]; 63 g ai/ha): 60 | Pre-emerge herbicidal activity, phytotoxicity rating AMARE ([1]; 250 g ai/ha): 95 | Pre-emerge herbicidal activity, phytotoxicity rating ECHCG ([2]; 63 g ai/ha): 0 | Pre-emerge herbicidal activity, phytotoxicity rating ECHCG ([2]; 250 g ai/ha): 20 | Pre-emerge herbicidal activity, phytotoxicity rating AMBEL ([3]; 63 g ai/ha): 0 | Pre-emerge herbicidal activity, phytotoxicity rating AMBEL ([3]; 250 g ai/ha): 40 | Pre-emerge herbicidal activity, phytotoxicity rating SETVI ([4]; 63 g ai/ha): 0 | Pre-emerge herbicidal activity, phytotoxicity rating SETVI ([4]; 250 g ai/ha): 0 | Pre-emerge herbicidal activity, phytotoxicity rating IPOHE ([5]; 63 g ai/ha): 0 | Pre-emerge herbicidal activity, phytotoxicity rating IPOHE ([5]; 250 g ai/ha): 0 | Pre-emerge herbicidal activity, phytotoxicity rating SORHA ([6]; 63 g ai/ha): 0 | Pre-emerge herbicidal activity, phytotoxicity rating SORHA ([6]; 250 g ai/ha): 35 | Pre-emerge herbicidal activity, phytotoxicity rating CHEAL ([7]; 63 g ai/ha): 20 | Pre-emerge herbicidal activity, phytotoxicity rating CHEAL ([7]; 250 g ai/ha): 75 | Pre-emerge herbicidal activity, phytotoxicity rating DIGSA ([8]; 63 g ai/ha): 0 | Pre-emerge herbicidal activity, phytotoxicity rating DIGSA ([8]; 250 g ai/ha): 70 | Pre-emerge herbicidal activity, phytotoxicity rating CASOB ([9]; 63 g ai/ha): 0 | Pre-emerge herbicidal activity, phytotoxicity rating CASOB ([9]; 250 g ai/ha): 10 | Pre-emerge herbicidal activity, phytotoxicity rating ABUTH ([10]; 63 g ai/ha): 40 | Pre-emerge herbicidal activity, phytotoxicity rating ABUTH ([10]; 250 g ai/ha): 100 | Pre-emerge phytotoxicity rating, crop damage CORN ([11]; 63 g ai/ha): 0 | Pre-emerge phytotoxicity rating, crop damage CORN ([11]; 250 g ai/ha): 70 | Pre-emerge phytotoxicity rating, crop damage RICE ([12]; 63 g ai/ha): 0 | Pre-emerge phytotoxicity rating, crop damage RICE ([12]; 250 g ai/ha): 20 | Post-emerge Herbicidal Activity, phytotoxicity rating ECHCG ([13]; Rate 63 g ai/ha): 99 | Post-emerge Herbicidal Activity, phytotoxicity rating ECHCG ([13]; Rate 250 g ai/ha): 100 | Post-emerge Herbicidal Activity, phytotoxicity rating AMBEL ([14]; Rate 63 g ai/ha): 50 | Post-emerge Herbicidal Activity, phytotoxicity rating AMBEL ([14]; Rate 250 g ai/ha): 95 | Post-emerge Herbicidal Activity, phytotoxicity rating SETVI ([15]; Rate 63 g ai/ha): 10 | Post-emerge Herbicidal Activity, phytotoxicity rating SETVI ([15]; Rate 250 g ai/ha): 40 | Post-emerge Herbicidal Activity, phytotoxicity rating IPOHE ([16]; Rate 63 g ai/ha): 40 | Post-emerge Herbicidal Activity, phytotoxicity rating IPOHE ([16]; Rate 250 g ai/ha): 50 | Post-emerge Herbicidal Activity, phytotoxicity rating SORHA ([17]; Rate 63 g ai/ha): 10 | Post-emerge Herbicidal Activity, phytotoxicity rating SORHA ([17]; Rate 250 g ai/ha): 70 | Post-emerge Herbicidal Activity, phytotoxicity rating CHEAL ([18]; Rate 63 g ai/ha): 70 | Post-emerge Herbicidal Activity, phytotoxicity rating CHEAL ([18]; Rate 250 g ai/ha): 95 | Post-emerge Herbicidal Activity, phytotoxicity rating DIGSA ([19]; Rate 63 g ai/ha): 70 | Post-emerge Herbicidal Activity, phytotoxicity rating DIGSA ([19]; Rate 250 g ai/ha): 98 | Post-emerge Herbicidal Activity, phytotoxicity rating AMARE ([20]; Rate 63 g ai/ha): 90 | Post-emerge Herbicidal Activity, phytotoxicity rating AMARE ([20]; Rate 250 g ai/ha): 100 | Post-emerge Herbicidal Activity, phytotoxicity rating CASOB ([21]; Rate 63 g ai/ha): 30 | Post-emerge Herbicidal Activity, phytotoxicity rating CASOB ([21]; Rate 250 g ai/ha): 60 | Post-emerge Herbicidal Activity, phytotoxicity rating ABUTH ([22]; Rate 63 g ai/ha): 100 | Post-emerge Herbicidal Activity, phytotoxicity rating ABUTH ([22]; Rate 250 g ai/ha): 95 | Post-emerge phytotoxicity rating CORN (crop damage) ([23]; Rate 63 g ai/ha): 50 | Post-emerge phytotoxicity rating CORN (crop damage) ([23]; Rate 250 g ai/ha): 100 | Post-emerge phytotoxicity rating RICE (crop damage) ([24]; Rate 63 g ai/ha): 10 | Post-emerge phytotoxicity rating RICE (crop damage) ([24]; Rate 250 g ai/ha): 45
